# Assay results from patent publication EP1388013B1, “COMPOSITIONS AND METHODS FOR THE USE OF FIBRONECTIN FRAGMENTS IN THE DIAGNOSIS OF CANCER” (THE REGENTS OF THE UNIVERSITY OF MICHIGAN, priority 2001, dated 2002).
# “Also recorded” adds a separate entry of the source. Non-standard residues stand in square brackets, D forms with d. Residues, ends and D or L forms follow the SMILES beside them. No end group written: not given here. hCys = N[C@@H](CCS)C(=O)O
# Columns and labels:
# [1] = tested on: metastatic DU-145 prostate cancer cells; assay: SU-ECM invasion assay, DU-145 cells; type: cell-based, human; conditions: for IC100: Homo sapiens, DU-145, read-out: concentration that completely (fully) inhibits the invasion of metastatic DU145 cells; for concentration that completely inhibits the invasion of metastatic DU145 cells: Example 10; for concentration that completely (fully) inhibits the invasion of metastatic DU145 cells: Example 11, Figure 7, molar basis; for inhibition of serum-induced invasion of DU-145 cells: Figure 4A; for inhibition of PHSRN-induced invasion of DU-145 cells: serum-free medium, 100 ng per ml PHSRN, Figure 4B
# Experimental: (§1) Adult Strongylocentrotus purpuratus sea urchins were obtained from Pacific BioMarine, and their embryos were cultured to the early pluteus stage in artificial sea water at 15°C. SU-ECM were prepared from them by treatment with nonionic detergent and sterilized by dilution in the appropriate media.
# (§2) […] When appropriate, purified bovine plasma fibronectin (Sigma, St. Louis, Mo), purified 120 kDa chymotryptic fragment (Gibco BRL), PHSRN or PHSCN peptides (synthesized at the Biomedical Research Core Facilities of the University of Michigan), or GRGDSP or GRGESP peptides (Gibco BRL) were added to the resuspended cells prior to placement of the cells on SU-ECM. In each well of a plate used for an invasion assay, SU-ECM were placed in 0.5 ml of the appropriate medium, and 0.5ml of the resuspended cells dropped on their exterior surfaces. Invasion assays were incubated 1 to 16 hours prior to scoring. If some circumstances, invasion assays were fixed in phosphate-buffered saline (PBS) with 2% formaldehyde for 5 minutes at room temperature, then rinsed into PBS.
# (§3) Invasion assays were coded and scored blindly by microscopic examination under phase contrast at 200- and 400-fold magnification. Each cell contacting an SU-ECM was scored for its position relative to the exterior or interior surfaces. A cell was judged to have invaded if it was located on an interior surface below the focal plane passing through the upper surface of the SU-ECM, but above the focal plane passing through its lower surface. The minimum viability of the cells in each assay was always ascertained at the time of assay by determining the fraction of spread, adherent cells on the bottom of each well scored.
# (§4) An invasion frequency is defined as the fraction of cells in contact with basement membranes which were located in their interiors at the time of assay. Thus, an invasion frequency of 1 denotes invasion by 100% of the cells in contact with basement membranes. Invasion frequencies were determined multiple times for each cell type assayed. For each type of cell assayed the mean and standard deviation of the invasion frequencies were calculated.
# (§5) The method of Example 4 is employed, with the addition of varying concentrations of the PHSCN peptide.
# (§6) Thus, the procedure in Example 4 provides a method for determining the inhibitory potential of the PHSCN peptide by comparing the number of cell invasions in the presence of the PHSCN peptide, with the number of cell invasions in the absence of the PHSCN peptide.
# In this example, in vitro invasion of cancer cells into substrates is inhibited with peptides that have been chemically modified with protecting groups and peptides having protecting groups as well as the modification wherein an L-amino acid has been replaced with the D-isomer. PHSCN peptide, blocked PHSCN peptide, and blocked PHSCN peptide with a D-cysteine instead of the L-isomer, were tested (Figure 4A, 4B).
# In this example, in vitro invasion of cancer cells into substrates is inhibited with non-peptide mimetics in comparison with chemically modified peptides (on a molar basis). The peptides of Example 10 (i.e. peptides chemically modified with protecting groups and peptides having protecting groups as well as the modification wherein an L-amino acid has been replaced with the D-isomer) were compared with the non-peptide mimetics DL-N-Acetylhomocysteinethiolactone, Thiobutyrolactone, and Mercaptopropionic acid, in order to investigate the structure activity relationship for invasion inhibition by interaction with the PHSRN-binding pocket of the α5β1 fibronectin receptor (Figure 7)
# neonatal fibroblasts = assay: SU-ECM invasion assay, neonatal fibroblasts; type: cell-based, human; conditions: in the presence (10% FCS) or absence of serum; molar concentration equivalent to plasma fibronectin in serum; Figure 9
# Excerpt: In one example cells for the invasion assay are harvested by rinsing in Hanks' balanced salt solution, followed by brief treatment with 0.25% trypsin, 0.02% EDTA, and pelleting and resuspension in the appropriate medium with or without 5% FCS at a density of about 50,000 cells per ml. When appropriate, purified bovine plasma fibronectin (from Sigma, St. Louis, Mo), purified 120 kDa chymotryptic fragment (Gibco BRL) or PHSRN peptides (synthesized at the Biomedical Research Core Facilities of the University of Michigan) are added to the resuspended cells prior to placement of the cells on SU-ECM. In each well of a plate used for an invasion assay, SU-ECM were placed in 0.5 ml of the appropriate medium, and 0.5ml of the resuspended cells dropped on their exterior surfaces. Invasion assays were incubated 1 to 16 hours prior to assay. If some circumstances, invasion assays were fixed in phosphate-buffered saline (PBS) with 2% formaldehyde for 5 minutes at room temperature, then rinsed into PBS.
# as §3, with “are” for “were”, “is” for “was”
# as §4, with “membranes which are located in” for “membranes which were located in”, “Invasion frequencies are determined multiple” for “Invasion frequencies were determined multiple”
# In this example, the invasiveness of neonatal fibroblasts into an SU-ECM invasion substrate is considered. Experiments were performed under serum-free conditions, or in medium with 10% fetal calf serum (FCS). Neither serum-free medium nor medium containing serum supported fibroblast invasion. However, consistent with the induction of metalloproteinase gene transcription by the 120 kDa fragment of plasma fibronectin (pFn) containing the cell-binding domain, the 120 kDa fragment induced fibroblast invasion in the presence or in the absence of serum. […]
# [2] = tested on: rat metastatic prostate carcinoma MatLyLu (MLL) cells; assay: SU-ECM invasion assay, MatLyLu cells; type: cell-based; conditions: 10% FCS, Figure 5
# Experimental: as §1
# […] When appropriate, purified bovine plasma fibronectin (Sigma, St. Louis, Mo), purified 120 kDa chymotryptic fragment (Gibco BRL), PHSRN or PHSCN peptides (synthesized at the Biomedical Research Core Facilities of the University of Michigan), or GRGDSP or GRGESP peptides (Gibco BRL) were added to the resuspended cells prior to placement of the cells on SU-ECM. […]
# as §3, with “A cell was judged to have invaded if it was located on an interior surface below the focal plane passing through the upper surface of the SU-ECM, but above the focal plane passing through its lower surface.” left out
# An invasion frequency is defined as the fraction of cells in contact with basement membranes which were located in their interiors at the time of assay. […] Invasion frequencies were determined multiple times for each cell type assayed. […]
# [3] = tested on: normal human prostate epithelial cells; assay: SU-ECM invasion assay, normal prostate epithelial cells; type: cell-based; conditions: 10% FCS, 100 ng per ml PHSRN, Figure 4B
# Experimental: as §1, §2, §3
# as §4, with “Thus, an invasion frequency of 1 denotes invasion by 100% of the cells in contact with basement membranes.” left out, “calculated. […]” for “calculated.”
# [4] = tested on: metastatic SUM-52 PE breast cancer cells; assay: SU-ECM invasion assay, SUM-52 PE cells; type: cell-based, human; conditions: for inhibition of serum-induced invasion of SUM-52 PE cells: medium with 5% serum, Figure 3A; for inhibition of PHSRN-induced invasion of SUM-52 PE cells: serum free media, 100 ng per ml PHSRN, Figure 3B
# Experimental: as §1
# Cells were harvested by rinsing in Hanks balanced salt solution, followed by brief treatment with 0.25% trypsin, 0.02% EDTA, and pelleting and resuspension in the appropriate medium with or without 5% FCS at a density of about 50,000 cells per ml. When appropriate, purified bovine plasma fibronectin (Sigma, St. Louis, Mo), purified 120 kDa chymotryptic fragment (Gibco BRL), PHSRN or PHSCN peptides (synthesized at the Biomedical Research Core Facilities of the University of Michigan), or GRGDSP or GRGESP peptides (Gibco BRL) were added to the resuspended cells prior to placement of the cells on SU-ECM. In each well of a plate used for an invasion assay, SU-ECM were placed in 0.5 ml of the appropriate medium, and 0.5ml of the resuspended cells dropped on their exterior surfaces. Invasion assays were incubated 1 to 16 hours prior to scoring. If some circumstances, invasion assays were fixed in phosphate-buffered saline (PBS) with 2% formaldehyde for 5 minutes at room temperature, then rinsed into PBS.
# as §3, §4, §5, §6
# [5] = tested on: normal human mammary epithelial cells; assay: SU-ECM invasion assay, normal mammary epithelial cells; type: cell-based; conditions: 10% FCS, 100 ng per ml PHSRN, Figure 3B
# Experimental: as §1, §2, §3
# as §4, with “Thus, an invasion frequency of 1 denotes invasion by 100% of the cells in contact with basement membranes.” left out, “calculated. […]” for “calculated.”
# [6] = DU145 invasion inhibition, 10% serum
molecule,measurement,setting,value
CC(=O)NC1CCSC1=O (racemic) [DL-N-Acetylhomocysteinethiolactone],fold less active than blocked PHSCN,[1]; [6],about 10 fold
same,fold more active than the unblocked PHSCN peptide,[1]; [6],about 3 fold
same,IC100,[1],0.6 µM
CC(=O)N1CCC[C@H]1C(=O)N[C@@H](Cc1c[nH]cn1)C(=O)N[C@@H](CO)C(=O)N[C@H](CS)C(=O)N[C@@H](CC(N)=O)C(N)=O [Ac-PHS(dC)N-NH2] (Ac-PHS[dC]N-NH2),invasion-inhibitory activity compared with Ac-PHSCN-NH2,"[1]; DU145 cells, medium with 10% serum, D-isomer of cysteine substituted",further increases the invasion-inhibitory activity; also recorded: further increases very substantially the invasion-inhibitory activity
"N=C(N)NCCC[C@H](NC(=O)CN)C(=O)NCC(=O)N[C@@H](CC(=O)O)C(=O)N[C@@H](CO)C(=O)O [GRGDS, reference compound]",induction of fibroblast invasion of SU-ECM,neonatal fibroblasts,no detectable activity
O=C(O)CCS [Mercaptopropionic acid],times less active in invasion inhibition than thiobutyrolactone,[1]; [6],at least 100 times
same,times less active than the unblocked PHSCN peptide,[1]; [6],≥ 1500 times
same,reduction of DU145 invasion,"[1]; at any of the concentrations tested, 10% serum",≤ 20%
NC(=O)C[C@H](NC(=O)[C@H](CCS)NC(=O)[C@H](CO)NC(=O)[C@H](Cc1c[nH]cn1)NC(=O)[C@@H]1CCCN1)C(=O)O [PHS(hC)N] (H-PHS[hCys]N-OH),inhibition of serum-induced invasion of MLL cells,[2]; higher concentrations,completely inhibits invasion
same,inhibition of serum-induced invasion of MLL cells,[2]; lower concentrations,substantially inhibits invasion
O=C1CCCS1 [Thiobutyrolactone],fold less active than N-acetylhomocysteinethiolactone,[1]; [6],50 fold
same,fold less active than blocked PHSCN,[1]; [6],about 500 fold
same,times less active than the unblocked PHSCN peptide,[1]; [6],15 times
same,IC100,[1],30 µM
Ac-PHSCN-NH2 [Ac-PHSCN-NH2],concentration that completely inhibits the invasion of metastatic DU145 cells,[1]; medium with 10% serum,approximately 1.3 ng/ml
same,concentration that completely (fully) inhibits the invasion of metastatic DU145 cells,[1]; medium with 10% serum,approximately 0.06 µM
PHSCN [PHSCN],inhibition of PHSRN-induced invasion of normal human prostate epithelial cells,[3]; higher concentrations,almost complete inhibition
same,inhibition of PHSRN-induced invasion of normal human prostate epithelial cells,[3]; low concentrations,substantial inhibitory affect
same,inhibition of serum-induced invasion of SUM-52 PE cells,[4]; relatively high concentrations,complete inhibition
same,inhibition of serum-induced invasion of SUM-52 PE cells,[4]; relatively low concentrations,substantial inhibitory affect
same,inhibition of PHSRN-induced invasion of SUM-52 PE cells,[4]; higher concentrations,almost complete inhibition
same,inhibition of PHSRN-induced invasion of SUM-52 PE cells,[4]; low concentrations,substantial inhibitory affect
same,inhibition of PHSRN-induced invasion of normal human mammary epithelial cells,[5]; higher concentrations,almost complete inhibition
same,inhibition of PHSRN-induced invasion of normal human mammary epithelial cells,[5]; low concentrations,substantial inhibitory affect
same,inhibition of serum-induced invasion of DU-145 cells,"[1]; 10% serum, relatively high concentrations",complete inhibition
same,inhibition of serum-induced invasion of DU-145 cells,"[1]; 10% serum, relatively low concentrations",substantial inhibitory affect
same,concentration that completely inhibits the invasion of metastatic DU145 cells,[1]; medium with 10% serum,3 ng/mL
same,concentration that completely (fully) inhibits the invasion of metastatic DU145 cells,[1]; medium with 10% serum,approximately 2 µM
same,inhibition of PHSRN-induced invasion of DU-145 cells,[1]; higher concentrations,almost complete inhibition
same,inhibition of PHSRN-induced invasion of DU-145 cells,[1]; low concentrations,substantial inhibitory affect
